Tests used:
Assay in all cases: Histone peptide microarray
Type in all cases: binding, human
[1] = test system: KDM5B (3); conditions: GST-tagged KDM5B (3); for Array Heatmap signal (histone peptide microarray): sheet Array Heatmap, each array performed twice, total n = 4
Outline: (§1)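 GST-tagged PHD readers, 0.5 μM, probed on a microarray of 293 synthetic histone peptides carrying single or combinatorial PTMs (optimized Petell protocol). Signals are averaged over 4 replicates and expressed as relative binding.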

[2] = test system: PHF21A; conditions: GST-tagged PHF21A; for Array Heatmap signal (histone peptide microarray): sheet Array Heatmap, each array performed twice, total n = 4
Outline: as §1

[3] = test system: RAG2; conditions: GST-tagged RAG2; for Array Heatmap signal (histone peptide microarray): sheet Array Heatmap, each array performed twice, total n = 4
Outline: as §1

[4] = test system: ING1; conditions: GST-tagged ING1; for Array Heatmap signal (histone peptide microarray): sheet Array Heatmap, each array performed twice, total n = 4
Outline: as §1

[5] = test system: DPF2 (PPC2W2); conditions: GST-tagged DPF2 (PPC2W2 = Dual PHD + C2W2-type Zn-finger); for Array Heatmap signal (histone peptide microarray): sheet Array Heatmap, each array performed twice, total n = 4
Outline: as §1

[6] = test system: ING3; conditions: GST-tagged ING3; for Array Heatmap signal (histone peptide microarray): sheet Array Heatmap, each array performed twice, total n = 4
Outline: as §1

[7] = test system: KDM4C (TTP); conditions: GST-tagged KDM4C (TTP = Tandem Tudor domain + PHD); for Array Heatmap signal (histone peptide microarray): sheet Array Heatmap, each array performed twice, total n = 4
Outline: as §1

[8] = test system: CHD4 (PPCC); conditions: GST-tagged CHD4 (PPCC = Dual PHD + Dual Chromodomain); for Array Heatmap signal (histone peptide microarray): sheet Array Heatmap, each array performed twice, total n = 4
Outline: as §1

[9] = test system: TAF3; conditions: GST-tagged TAF3; for Array Heatmap signal (histone peptide microarray): sheet Array Heatmap, each array performed twice, total n = 4
Outline: as §1

[10] = test system: KDM5B (1); conditions: GST-tagged KDM5B (1); for Array Heatmap signal (histone peptide microarray): sheet Array Heatmap, each array performed twice, total n = 4
Outline: as §1

[11] = test system: KDM5A (1); conditions: GST-tagged KDM5A (1); for Array Heatmap signal (histone peptide microarray): sheet Array Heatmap, each array performed twice, total n = 4
Outline: as §1

[12] = test system: ING4; conditions: GST-tagged ING4; for Array Heatmap signal (histone peptide microarray): sheet Array Heatmap, each array performed twice, total n = 4
Outline: as §1

[13] = test system: BAZ2B; conditions: GST-tagged BAZ2B; for Array Heatmap signal (histone peptide microarray): sheet Array Heatmap, each array performed twice, total n = 4
Outline: as §1

[14] = test system: KDM5A (3); conditions: GST-tagged KDM5A (3); for Array Heatmap signal (histone peptide microarray): sheet Array Heatmap, each array performed twice, total n = 4
Outline: as §1

[15] = test system: PHF8; conditions: GST-tagged PHF8; for Array Heatmap signal (histone peptide microarray): sheet Array Heatmap, each array performed twice, total n = 4
Outline: as §1

[16] = test system: MORC3 (CW); conditions: GST-tagged MORC3 (CW = CW-type Zn-finger); for Array Heatmap signal (histone peptide microarray): sheet Array Heatmap, each array performed twice, total n = 4
Outline: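 Readout is array binding signal, reported as the mean and standard deviation over four replicates. Each purified GST-fused PHD domain was incubated at 0.5 μM with a library of 293 modified histone peptides.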

[17] = test system: PHRF1 (RP); conditions: GST-tagged PHRF1 (RP); for Array Heatmap signal (histone peptide microarray): sheet Array Heatmap, each array performed twice, total n = 4
Outline: as §1

[18] = test system: AIRE (PP); conditions: GST-tagged AIRE (PP); for Array Heatmap signal (histone peptide microarray): sheet Array Heatmap, each array performed twice, total n = 4
Outline: as §1

[19] = test system: CHD5 (PPCC); conditions: GST-tagged CHD5 (PPCC = Dual PHD + Dual Chromodomain); for Array Heatmap signal (histone peptide microarray): sheet Array Heatmap, each array performed twice, total n = 4
Outline: as §1

[20] = test system: ING5; conditions: GST-tagged ING5; for Array Heatmap signal (histone peptide microarray): sheet Array Heatmap, each array performed twice, total n = 4
Outline: as §1

[21] = test system: PHF2; conditions: GST-tagged PHF2; for Array Heatmap signal (histone peptide microarray): sheet Array Heatmap, each array performed twice, total n = 4
Outline: as §1

[22] = test system: DIDO1; conditions: GST-tagged DIDO1; for Array Heatmap signal (histone peptide microarray): sheet Array Heatmap, each array performed twice, total n = 4
Outline: as §1

[23] = test system: MLL5; conditions: GST-tagged MLL5; for Array Heatmap signal (histone peptide microarray): sheet Array Heatmap, each array performed twice, total n = 4
Outline: as §1

[24] = test system: KDM7A; conditions: GST-tagged KDM7A; for Array Heatmap signal (histone peptide microarray): sheet Array Heatmap, each array performed twice, total n = 4
Outline: as §1

[25] = test system: SP140L; conditions: GST-tagged SP140L; for Array Heatmap signal (histone peptide microarray): sheet Array Heatmap, each array performed twice, total n = 4
Outline: as §1

[26] = test system: BPTF (PB); conditions: GST-tagged BPTF (PB = PHD + Bromodomain); for Array Heatmap signal (histone peptide microarray): sheet Array Heatmap, each array performed twice, total n = 4
Outline: as §1

[27] = test system: ING2; conditions: GST-tagged ING2; for Array Heatmap signal (histone peptide microarray): sheet Array Heatmap, each array performed twice, total n = 4
Outline: as §1

[28] = test system: PHF13; conditions: GST-tagged PHF13; for Array Heatmap signal (histone peptide microarray): sheet Array Heatmap, each array performed twice, total n = 4
Outline: as §1

[29] = test system: TRIM66 (PB); conditions: GST-tagged TRIM66 (PB = PHD + Bromodomain); for Array Heatmap signal (histone peptide microarray): sheet Array Heatmap, each array performed twice, total n = 4
Outline: as §1

[30] = test system: PHF23; conditions: GST-tagged PHF23; for Array Heatmap signal (histone peptide microarray): sheet Array Heatmap, each array performed twice, total n = 4
Outline: as §1

[31] = test system: CHD5 (PCC); conditions: GST-tagged CHD5 (PCC = PHD + Dual Chromodomain); for Array Heatmap signal (histone peptide microarray): sheet Array Heatmap, each array performed twice, total n = 4
Outline: as §1

[32] = histone peptide array, arrays performed twice, n of 4

H3R2me2a + T3p + K4me3: H3 1-20
Array Heatmap signal (histone peptide microarray) [1]: 0.5351 | Array Heatmap signal (histone peptide microarray) [2]: 0.4298 | Array Heatmap signal (histone peptide microarray) [3]: 0.2527 | Array Heatmap signal (histone peptide microarray) [4]: 0.5674 | Array Heatmap signal (histone peptide microarray) [5]: 0.687 | Array Heatmap signal (histone peptide microarray) [6]: 0.4974 | Array Heatmap signal (histone peptide microarray) [7]: 0.4695 | Array Heatmap signal (histone peptide microarray) [8]: 0.6044 | Array Heatmap signal (histone peptide microarray) [9]: 0.272 | Array Heatmap signal (histone peptide microarray) [10]: 0.6049 | Array Heatmap signal (histone peptide microarray) [11]: 0.4435 | Array Heatmap signal (histone peptide microarray) [12]: 0.4572 | Array Heatmap signal (histone peptide microarray) [13]: 0.443 | Array Heatmap signal (histone peptide microarray) [14]: 0.5129 | Array Heatmap signal (histone peptide microarray) [15]: 0.3942 | Array Heatmap signal (histone peptide microarray) [16]: 0.479 | Array Heatmap signal (histone peptide microarray) [17]: 0.4955 | Array Heatmap signal (histone peptide microarray) [18]: 0.4234 | Array Heatmap signal (histone peptide microarray) [19]: 0.5403 | Array Heatmap signal (histone peptide microarray) [20]: 0.3525 | Array Heatmap signal (histone peptide microarray) [21]: 0.6351 | Array Heatmap signal (histone peptide microarray) [22]: 0.7496 | Array Heatmap signal (histone peptide microarray) [23]: 0.5468 | Array Heatmap signal (histone peptide microarray) [24]: 0.3305 | Array Heatmap signal (histone peptide microarray) [25]: 0.3541 | Array Heatmap signal (histone peptide microarray) [26]: 0.3598 | Array Heatmap signal (histone peptide microarray) [27]: 0.5913 | Array Heatmap signal (histone peptide microarray) [28]: 0.6175 | Array Heatmap signal (histone peptide microarray) [29]: 0.6445 | Array Heatmap signal (histone peptide microarray) [30]: 0.5238 | Array Heatmap signal (histone peptide microarray) [31]: 0.7634

H3R2me2a: H3 1-20 [Peptide H3R2me2a]
Array Heatmap signal (histone peptide microarray) [1]: 0.4682 | Array Heatmap signal (histone peptide microarray) [2]: 0.4684 | Array Heatmap signal (histone peptide microarray) [3]: 0.2465 | Array Heatmap signal (histone peptide microarray) [4]: 0.5498 | Array Heatmap signal (histone peptide microarray) [5]: 0.6507 | Array Heatmap signal (histone peptide microarray) [6]: 0.4743 | Array Heatmap signal (histone peptide microarray) [7]: 0.4374 | Array Heatmap signal (histone peptide microarray) [8]: 0.6459 | Array Heatmap signal (histone peptide microarray) [9]: 0.2736 | Array Heatmap signal (histone peptide microarray) [10]: 0.5237 | Array Heatmap signal (histone peptide microarray) [11]: 0.4227 | Array Heatmap signal (histone peptide microarray) [12]: 0.442 | Array Heatmap signal (histone peptide microarray) [13]: 0.4186 | Array Heatmap signal (histone peptide microarray) [14]: 0.4981 | Array Heatmap signal (histone peptide microarray) [15]: 0.3491 | Array Heatmap signal (histone peptide microarray) [16]: 0.4345 | Array Heatmap signal (histone peptide microarray) [17]: 0.516 | Array Heatmap signal (histone peptide microarray) [18]: 0.3953 | Array Heatmap signal (histone peptide microarray) [19]: 0.5177 | Array Heatmap signal (histone peptide microarray) [20]: 0.3271 | Array Heatmap signal (histone peptide microarray) [21]: 0.5486 | Array Heatmap signal (histone peptide microarray) [22]: 0.6992 | Array Heatmap signal (histone peptide microarray) [23]: 0.5223 | Array Heatmap signal (histone peptide microarray) [24]: 0.3073 | Array Heatmap signal (histone peptide microarray) [25]: 0.3569 | Array Heatmap signal (histone peptide microarray) [26]: 0.3326 | Array Heatmap signal (histone peptide microarray) [27]: 0.6004 | Array Heatmap signal (histone peptide microarray) [28]: 0.5929 | Array Heatmap signal (histone peptide microarray) [29]: 0.568 | Array Heatmap signal (histone peptide microarray) [30]: 0.5039 | Array Heatmap signal (histone peptide microarray) [31]: 0.7924

H3R2me2s + K4me2: H3 1-20
Array Heatmap signal, KDM5B (3) [1, 32]: 0.725 | Array Heatmap signal, PHF21A [2, 32]: 0.4639 | Array Heatmap signal, RAG2 [3, 32]: 0.4992 | Array Heatmap signal, ING1 [4, 32]: 0.5374 | Array Heatmap signal, DPF2 (PPC2W2) [5, 32]: 0.6255 | Array Heatmap signal, ING3 [6, 32]: 0.5515 | Array Heatmap signal, KDM4C (TTP) [7, 32]: 0.5629 | Array Heatmap signal, CHD4 (PPCC) [8, 32]: 0.5835 | Array Heatmap signal, TAF3 [9, 32]: 0.4 | Array Heatmap signal, KDM5B (1) [10, 32]: 0.7544 | Array Heatmap signal, KDM5A (1) [11, 32]: 0.4761 | Array Heatmap signal, ING4 [12, 32]: 0.4666 | Array Heatmap signal, BAZ2B [13, 32]: 0.454 | Array Heatmap signal, KDM5A (3) [14, 32]: 0.7167 | Array Heatmap signal, PHF8 [15, 32]: 0.5813 | Array Heatmap signal, MORC3 (CW) [16, 32]: 0.7987 | Array Heatmap signal, PHRF1 (RP) [17, 32]: 0.4714 | Array Heatmap signal, AIRE (PP) [18, 32]: 0.4691 | Array Heatmap signal, CHD5 (PPCC) [19, 32]: 0.5636 | Array Heatmap signal, ING5 [20, 32]: 0.3606 | Array Heatmap signal, PHF2 [21, 32]: 0.597 | Array Heatmap signal, DIDO1 [22, 32]: 0.7352 | Array Heatmap signal, MLL5 [23, 32]: 0.5794 | Array Heatmap signal, KDM7A [24, 32]: 0.4256 | Array Heatmap signal, SP140L [25, 32]: 0.3393 | Array Heatmap signal, BPTF (PB) [26, 32]: 0.3673 | Array Heatmap signal, ING2 [27, 32]: 0.6563 | Array Heatmap signal, PHF13 [28, 32]: 0.6897 | Array Heatmap signal, TRIM66 (PB) [29, 32]: 0.6465 | Array Heatmap signal, PHF23 [30, 32]: 0.6298 | Array Heatmap signal, CHD5 (PCC) [31, 32]: 0.8074

Reference: publication PMC6979384, “Characterization of the plant homeodomain (PHD) reader family for their histone tail interactions” (Epigenetics & Chromatin, 2020)
